Laboratory results taken from patent publication US20230027985A1, “SUBSTITUTED HYDANTOINAMIDES AS ADAMTS7 ANTAGONISTS” (Bayer Aktiengesellschaft, priority 2019, published 2023).

How the values were obtained:
[1] = target: T1, ADAMTS4 (Homo sapiens, UniProt O75173); assay: Selectivity assay for ADAMTS-7 modulators (FRET), ADAMTS4; type: biochemical; conditions: 50 nM enzyme (R&D 4307-AD), 1 μM Dabcyl/Edans FRET substrate, 120 min at 32° C.
T1 construct: purchased R&D 4307-AD
T1 sequence (O75173 213-685 limits assumed): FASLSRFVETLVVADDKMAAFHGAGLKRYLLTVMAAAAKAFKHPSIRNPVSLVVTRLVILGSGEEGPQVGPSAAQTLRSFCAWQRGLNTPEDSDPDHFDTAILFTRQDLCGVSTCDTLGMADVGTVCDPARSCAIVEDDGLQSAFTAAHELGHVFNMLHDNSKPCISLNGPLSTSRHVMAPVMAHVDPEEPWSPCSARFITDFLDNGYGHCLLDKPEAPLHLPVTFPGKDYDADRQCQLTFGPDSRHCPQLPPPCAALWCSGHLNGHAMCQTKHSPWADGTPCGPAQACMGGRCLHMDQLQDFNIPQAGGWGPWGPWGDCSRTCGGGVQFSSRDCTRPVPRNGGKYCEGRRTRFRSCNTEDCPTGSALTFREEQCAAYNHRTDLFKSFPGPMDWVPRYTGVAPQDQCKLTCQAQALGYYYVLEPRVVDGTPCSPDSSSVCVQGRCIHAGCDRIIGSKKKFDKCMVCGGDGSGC
Procedure: The respective enzyme (see table 2 below) was diluted in reaction buffer (50 mM Tris, 2.5 μM ZnCl2, 0.05% BSA, 0.001% Brij, pH 7.5 for ADAM17; 50 mM Tris 7.5, 150 mM NaCl, 10 mM CaCl2, 0.05% Brij for all other enzymes) to the respective concentration and 25 μl were transferred into each well of a 384-well white microtiter plate (Greiner Bio One 781075). 1 μl test compound solution (dissolved in DMSO, at the corresponding concentration) or pure DMSO as a control was added per well. The enzymatic reaction was initiated by addition of 25 μl of the respective concentration of the respective FRET substrate (see table 2 below) in reaction buffer. The microtiter plate was incubated for 120 min at the temperature of 32° C. The increase of fluorescence intensity was measured in appropriate fluorescence plate reader (e.g. TECAN Ultra) using the respective wavelengths for excitation and emission. IC50 values were calculated from percentage of inhibition of enzyme activity as a function of test compound concentration.

[2] = target: T2, Purified recombinant ADAMTS-7 (rat prodomain/human catalytic domain, SEQ ID No. 01 or 02) (Homo sapiens, UniProt Q9UKP4); assay: Assay for ADAMTS-7 enzymatic activity (FRET substrate cleavage); type: biochemical; conditions: FRET substrate SEQ ID No. 11, 120 min at 32° C.; read-out: ADAMTS7-IC50
T2 construct: rat ADAMTS-7 signal peptide + prodomain (rat 1-217, Q1EHB3) (N); 2xStrep tag (C); 6xHis tag (C); made in house; host or cells: Expi293 cells
T2 sequence (Q9UKP4 237-537): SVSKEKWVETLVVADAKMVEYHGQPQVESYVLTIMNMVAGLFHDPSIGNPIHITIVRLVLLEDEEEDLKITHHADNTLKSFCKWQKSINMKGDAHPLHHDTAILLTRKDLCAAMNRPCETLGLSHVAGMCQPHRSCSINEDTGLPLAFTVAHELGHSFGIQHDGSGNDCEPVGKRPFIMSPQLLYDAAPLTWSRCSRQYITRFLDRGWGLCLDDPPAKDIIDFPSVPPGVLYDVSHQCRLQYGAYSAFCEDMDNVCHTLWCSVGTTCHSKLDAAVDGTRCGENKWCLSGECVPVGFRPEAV
Procedure: Purified recombinant ADAMTS-7 (as of SEQ ID No. 01 or SEQ ID No. 02) was diluted in reaction buffer (20 mM HEPES pH 8.0, 150 mM NaCl, 5 mM CaCl2, 0.004% Brij, 10 μM ZnCl2) fora concentration of approximately 20 nM. 25 μl of the solution were transferred into each well of a 384-well white microtiter plate (Greiner Bio-One 781075) and 1 μl test compound solution (modulator/inhibitor dissolved in DMSO, at the corresponding concentration) or pure DMSO as a control were added per well. […] Amino acids […] are derived from Thrombospondin-1 sequence (275-289). An additional carboxyl glutamic acid was added after the QXL520 quencher to increase substrate solubility. The microtiter plate was incubated for 120 min at the temperature of 32° C. The increase of fluorescence intensity was measured in appropriate fluorescence plate reader (e.g. TECAN Ultra) using excitation wavelength of 485 nm and emission wavelength of 520 nm. IC50 values were calculated from percentage of inhibition of ADAMTS-7 activity as a function of test compound concentration.

SMILES | IC50 [1] [µM] | IC50 [2] [µM]
Cn1ccnc1C1(CNC(=O)c2cnn(-c3ccccc3)n2)NC(=O)NC1=O (stereo not drawn) [Example 142, ent-N-{[4-(1-methyl-1H-imidazol-2-yl)-2,5-dioxoimidazolidin-4-yl]methyl}-2-phenyl-2H-1,2,3-triazole-4-carboxamide] | 0.32 | 0.004
O=C1NC(=O)[C@](CNC(=O)c2cnn(-c3ccccc3Cl)n2)(C2CC2)N1 [Example 11, 2-(2-chlorophenyl)-N-{[(4R)-4-cyclopropyl-2,5-dioxoimidazolidin-4-yl]methyl}-2H-1,2,3-triazole-4-carboxamide] | 10 | 0.47
CC(C)C1(CNC(=O)c2cnn(-c3ccc(F)cc3F)n2)NC(=O)NC1=O (single isomer, unassigned; ent-2) [Example 88, ent-2-(2,4-difluorophenyl)-N-[(4-isopropyl-2,5-dioxoimidazolidin-4-yl)methyl]-2H-1,2,3-triazole-4-carboxamide] | 13 | 0.098
O=C1NC(=O)C(CNC(=O)c2cnn(-c3ccc(F)cc3)n2)(c2ccccc2)N1 (racemic) [Example 139, rac-N-[(2,5-dioxo-4-phenylimidazolidin-4-yl)methyl]-2-(4-fluorophenyl)-2H-1,2,3-triazole-4-carboxamide] | > 50 | 0.069
O=C1NC(=O)C(CNC(=O)c2cnn(-c3ccc(F)cc3)n2)(c2cscn2)N1 (stereo not drawn) [Example 148, ent-N-{[2,5-dioxo-4-(1,3-thiazol-4-yl)imidazolidin-4-yl]methyl}-2-(4-fluorophenyl)-2H-1,2,3-triazole-4-carboxamide] | 2.5 | 0.012
O=C1NC(=O)[C@](CNC(=O)c2cnn(-c3cc(F)c(F)c(F)c3)n2)(C2CC2)N1 [Example 98, N-{[(4R)-4-cyclopropyl-2,5-dioxoimidazolidin-4-yl]methyl}-2-(3,4,5-trifluorophenyl)-2H-1,2,3-triazole-4-carboxamide] | 1.1 | 0.025
Cc1scnc1C1(CNC(=O)c2cnn(-c3ccc(F)cc3)n2)NC(=O)NC1=O (racemic) [Example 100, rac-2-(4-fluorophenyl)-N-{[4-(5-methyl-1,3-thiazol-4-yl)-2,5-dioxoimidazolidin-4-yl]methyl}-2H-1,2,3-triazole-4-carboxamide] | 0.68 | 0.008
O=C1NC(=O)C(CNC(=O)c2nc(-c3ccccc3)no2)(CC2CC2)N1 (stereo not drawn) [Example 80, ent-N-[(4-(cyclopropylmethyl)-2,5-dioxoimidazolidin-4-yl)methyl]-3-phenyl-1,2,4-oxadiazole-5-carboxamide] | 2.9 | 0.25
O=C1NC(=O)C(CNC(=O)c2cnn(-c3ccc(F)cc3)n2)(C2CCCC2)N1 (stereo not drawn) [Example 74, ent-N-[(4-cyclopentyl-2,5-dioxoimidazolidin-4-yl)methyl]-2-(4-fluorophenyl)-2H-1,2,3-triazole-4-carboxamide] | 5.9 | 0.033
O=C1NC(=O)C(CNC(=O)c2cnn(-c3ccccc3)n2)(C2CCCC2)N1 (racemic) [Example 50, rac-N-[(4-cyclopentyl-2,5-dioxoimidazolidin-4-yl)methyl]-2-phenyl-2H-1,2,3-triazole-4-carboxamide] | – | 0.191
O=C1NC(=O)C(CNC(=O)c2cnn(-c3ccccc3)n2)(C2CCCCC2)N1 (racemic) [Example 53, rac-N-[(4-cyclohexyl-2,5-dioxoimidazolidin-4-yl)methyl]-2-phenyl-2H-1,2,3-triazole-4-carboxamide] | – | 0.145
O=C1NC(=O)C(CNC(=O)c2cnn(-c3ccc(Cl)c(F)c3)n2)(C2CCC2)N1 (single isomer, unassigned; ent-2) [Example 89, ent-2-(4-chloro-3-fluorophenyl)-N-[(4-cyclobutyl-2,5-dioxoimidazolidin-4-yl)methyl]-2H-1,2,3-triazole-4-carboxamide] | 0.975 | –
CC(C)(C)C1(CNC(=O)c2cnn(-c3ccc(C(F)(F)F)cc3)n2)NC(=O)NC1=O (racemic) [Example 6, rac-N-[(4-tert-butyl-2,5-dioxoimidazolidin-4-yl)methyl]-2-[4-(trifluoromethyl)phenyl]-2H-1,2,3-triazole-4-carboxamide] | – | 0.62
O=C1NC(=O)C(CNC(=O)c2cnn(-c3ccc(F)cc3)n2)(c2ccccn2)N1 (single isomer, unassigned) [Example 138, ent-N-{[2,5-dioxo-4-(pyridin-2-yl)imidazolidin-4-yl]methyl}-2-(4-fluorophenyl)-2H-1,2,3-triazole-4-carboxamide] | – | 0.59

Next, values leading:

IC50 [1] [µM] | IC50 [2] [µM] | SMILES
11 | 0.078 | O=C1NC(=O)C(CNC(=O)c2cnn(-c3ccccc3)n2)(C2CCC2)N1 (stereo not drawn) [Example 79, ent-N-[(4-cyclobutyl-2,5-dioxoimidazolidin-4-yl)methyl]-2-phenyl-2H-1,2,3-triazole-4-carboxamide]
3.1 | 0.016 | O=C1NC(=O)C(CNC(=O)c2cnn(-c3cc(F)c(F)c(F)c3)n2)(C2CCC2)N1 (stereo not drawn) [Example 90, ent-N-[(4-cyclobutyl-2,5-dioxoimidazolidin-4-yl)methyl]-2-(3,4,5-trifluorophenyl)-2H-1,2,3-triazole-4-carboxamide]
6 | 0.069 | CC(C)(C)C1(CNC(=O)c2cnn(-c3ccc(F)cc3)n2)NC(=O)NC1=O (racemic) [Example 63, rac-N-[(4-tert-butyl-2,5-dioxoimidazolidin-4-yl)methyl]-2-(4-fluorophenyl)-2H-1,2,3-triazole-4-carboxamide]
0.46 | – | O=C1NC(=O)C(CNC(=O)c2cnn(-c3ccc(F)cc3)n2)(c2ncsc2C2CC2)N1 (racemic) [Example 157, rac-N-{[4-(5-cyclopropyl-1,3-thiazol-4-yl)-2,5-dioxoimidazolidin-4-yl]methyl}-2-(4-fluorophenyl)-2H-1,2,3-triazole-4-carboxamide]
– | 0.21 | CC(C)(C)C1(CNC(=O)c2cnn(-c3ccc(C(F)(F)F)c(F)c3)n2)NC(=O)NC1=O (racemic) [Example 2, rac-N-{[4-tert-butyl-2,5-dioxoimidazolidin-4-yl]methyl}-2-[3-fluoro-4-(trifluoromethyl)phenyl]-2H-1,2,3-triazole-4-carboxamide]
– | 0.24 | O=C1NC(=O)C(CNC(=O)c2cnn(-c3ccc(F)cc3)n2)(CC2CC2)N1 (racemic) [Example 64, rac-N-[4-(cyclopropylmethyl)-2,5-dioxoimidazolidin-4-yl)methyl]-2-(4-fluorophenyl)-2H-1,2,3-triazole-4-carboxamide]
– | 0.38 | O=C1NC(=O)C(CNC(=O)c2cnn(-c3ccc(F)cc3)n2)(C2CCCC2)N1 (racemic) [Example 66, rac-N-[(4-cyclopentyl-2,5-dioxoimidazolidin-4-yl]methyl]-2-(4-fluorophenyl)-2H-1,2,3-triazole-4-carboxamide]
– | 0.71 | C[C@@H](NC(=O)c1cnn(-c2ccccc2)n1)C1(C2CC2)NC(=O)NC1=O (stereo partly drawn) [Example 39, ent-N-((1R)-1-(4-Cyclopropyl-2,5-dioxoimidazolidin-4-yl)ethyl)-2-phenyl-2H-1,2,3-triazole-4-carboxamide]
